These results are taken from publication PMC9079302 (The Journal of Biological Chemistry, 2022).

Several values for one entry are separate records, joined by “and”; a condition that tells them apart may be missing. Equal values may be shown once. Read-outs that look alike come from different tables or passages of the source.

The target in one data set is T1, P450 3A5 (Homo sapiens, UniProt P20815).
T1 construct: 4-histidine tag (C); made in house; host or cells: Escherichia coli
Put plainly: Type 1 spectral shift equilibrium binding to P450 3A5. As to conditions: for concentration dependence of type 1 spectral shift (shape of binding curve): 3A5 binding isotherm; for ΔAmax/[P450]: one-site binding (Equation 2; tiamulin Equation 3). On the procedure: The sample cuvette contained 3A5, and the corresponding buffer was in the reference cuvette. The protein buffer consisted of 50 mM sodium Hepes at pH 7.4, 50 mM potassium acetate at pH 7.4, 0.5 mM EDTA, and 20% glycerol. […] The digital spectra were sampled at 1 nm intervals for 1 s. Excel was used to subtract the initial spectrum from subsequent spectra with volume corrections for substrate addition. […] Initial values for Kds and RSRs for each complex are provided. Ligand-free P450 was assigned an RSR of zero. The output includes predicted values for Kds and RSRs, correlations between parameters, and several statistical values for goodness of fit and variances. In addition, graphs of the fit of the data to the model and residuals are produced in several formats.

Data set [1] has as its system 3A5. More on the design: method as in PMID 27485383. As to conditions: cited from earlier work.
Data set [2] concerns human microsomal testosterone turnover. More on the design: method as in PMID 33137559. The settings on record: human microsomes; cited from earlier work.
The subject of data set [3] is 3A5. More on the design: method as in PMID 17200113. The settings on record: type 2 shift, 1 μM P450, biphasic response; cited from earlier work.
The mark [4] stands for this setting: type 1 spectral shift, one-site binding (Equation 2; tiamulin tight-binding Equation 3), [P450] 0.94–2.03 μM, read-out: Kd.

T1 sequence (P20815 with tags, fused parts or gaps limits assumed): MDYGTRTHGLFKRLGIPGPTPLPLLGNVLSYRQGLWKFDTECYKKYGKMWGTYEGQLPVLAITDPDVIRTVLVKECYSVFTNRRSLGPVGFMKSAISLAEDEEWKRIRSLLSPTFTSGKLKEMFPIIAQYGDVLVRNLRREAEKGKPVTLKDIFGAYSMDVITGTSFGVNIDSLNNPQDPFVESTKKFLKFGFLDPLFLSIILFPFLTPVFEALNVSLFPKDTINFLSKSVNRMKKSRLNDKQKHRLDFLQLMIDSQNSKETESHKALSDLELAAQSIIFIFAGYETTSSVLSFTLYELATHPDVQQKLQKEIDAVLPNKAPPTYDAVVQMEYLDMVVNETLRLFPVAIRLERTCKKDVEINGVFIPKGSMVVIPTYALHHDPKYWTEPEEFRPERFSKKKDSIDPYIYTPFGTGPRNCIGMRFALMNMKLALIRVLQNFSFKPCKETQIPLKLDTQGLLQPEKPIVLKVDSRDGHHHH

Turning to `CC[C@]1(C)C[C@@H](OC(=O)CSc2n[nH]c(N)n2)[C@]2(C)[C@H](C)CC[C@]3(CCC(=O)[C@H]32)[C@@H](C)[C@@H]1O` [Azamulin, (3aS,4R,5S,6R,8R,9R,9aR,10R)-6-ethyl-5-hydroxy-4,6,9,10-tetramethyl-1-oxodecahydro-3a,9-propanocyclopenta[8]annulen-8-yl [(5-amino-1H-1,2,4-triazol-3-yl)sulfanyl]acetate], the Kd at P450 3A5 (Dynafit numerical fit, model 4, [P450] 3.73–4.36 μM, 4 replicates, read-out: K1d (binary complex, two-site sequential binding model)) is 0.6 µM and 0.65 µM; at P450 3A5 (Dynafit numerical fit, model 4, [P450] 3.73–4.36 μM, 4 replicates, read-out: K2d (ternary complex, two-site sequential binding model)) it was 3.4 µM and 3.41 µM; on P450 3A5 (type 1 spectral shift, sigmoidal curve, nominal 4 μM 3A5, n = 4, read-out: Kd (Hill equation fit)) it was 7.1 ± 0.4 µM. Moreover, the “time-dependent inhibition of 3A5” value in the data set with 3A5 [1] is “either very slow or nonexistent”.
Take `C=C[C@]1(C)C[C@@H](OC(=O)CS[C@@H]2CC[C@@H](N)C[C@H]2O)[C@]2(C)[C@H](C)CC[C@]3(CCC(=O)[C@H]32)[C@@H](C)[C@@H]1O` [Lefamulin]: the “concentration dependence of type 1 spectral shift (shape of binding curve)” value at P450 3A5 is “hyperbolic”. In addition, the “ΔAmax/[P450]” value at P450 3A5 (type 1 spectral shift) is recorded as 0.06 ± 0.00. Also, on P450 3A5 (setting [4]), the Kd was found to be 55.1 ± 7.8 µM.
On to `C=C[C@]1(C)C[C@@H](OC(=O)CO)[C@]2(C)[C@H](C)CC[C@]3(CCC(=O)[C@H]32)[C@@H](C)[C@@H]1O` [Pleuromutilin], for which, on P450 3A5, the “concentration dependence of type 1 spectral shift (shape of binding curve)” value is listed as “hyperbolic”. Further, on P450 3A5 (type 1 spectral shift), the “ΔAmax/[P450]” value is listed as 0.12 ± 0.02. Further, the Kd on P450 3A5 (setting [4]) worked out at 32.7 ± 4.3 µM.
With `C=C[C@]1(C)C[C@@H](OC(=O)CS[C@@H]2C[C@H]3CC[C@@H](C2)N3C)[C@]2(C)[C@H](C)CC[C@]3(CCC(=O)[C@H]32)[C@@H](C)[C@@H]1O` [Retapamulin], on P450 3A5, the “concentration dependence of type 1 spectral shift (shape of binding curve)” value is reported as “hyperbolic”. For the same compound, the “ΔAmax/[P450]” value on P450 3A5 (type 1 spectral shift) is recorded as 0.09 ± 0.00. Moreover, at P450 3A5 (setting [4]), the Kd is 16.6 ± 2.4 µM.
As usually defined, the IC50 is the concentration that gives 50% inhibition. Regarding `C=C[C@]1(C)C[C@@H](OC(=O)CSCCN(CC)CC)[C@]2(C)[C@H](C)CC[C@]3(CCC(=O)[C@H]32)[C@@H](C)[C@@H]1O` [Tiamulin], the IC50 in data set [2] is 1690 nM. The “concentration dependence of type 1 spectral shift (shape of binding curve)” value on P450 3A5 was “hyperbolic”. In addition, on P450 3A5 (type 1 spectral shift), the “ΔAmax/[P450]” value turned out to be 0.08 ± 0.00. The Kd at P450 3A5 (setting [4]) turned out to be 6.31 ± 1.02 µM.
In general, Hill coefficient refers to a measure of the steepness of the concentration-response curve. Regarding `CC(=O)N1CCN(c2ccc(OCC3COC(Cn4ccnc4)(c4ccc(Cl)cc4Cl)O3)cc2)CC1` (stereo not drawn) [ketoconazole], in the data set with 3A5 [3], the Hill coefficient is on record as 1.4.
